Results reported in patent US6303596A, “Use of taurolidine for treatment of leukemias” (priority 2000, dated 2001).

Experiments:
Format in all cases: cell-based, human
[1] = test system: TNFα; assay: LPS-induced TNFα expression/secretion by PBMC, ELISA; conditions: taurolidine 100 μg/ml, 4 h
Method: FIG. 3A and FIG. 3B are graphs depicting taurolidine inhibition of LPS-induced alpha […] (TNFα) expression by monocytic cells as determined by assay procedures. FIG. 3A represents MM6 cells; FIG. 3B represents PBMC. The cells were induced with LPS (hatched bars: 100 ng/ml LPS in RPMI+10% BCS; solid bars: 10 ng/ml in AIM-V+0.01% BCS) in the presence of varying concentrations of taurolidine. After four hours, cell supernatants were collected for TNFα ELISA. Data are expressed as percent of TNFα levels measured in cell cultures treated with LPS alone (no taurolidine or vehicle). Experiments were performed with duplicate samples and were repeated at least three times. Values shown in FIG. 3A are from a representative experiment. Values shown in FIG. 3B are mean±SEM of three experiments.
Human peripheral blood mononuclear cells (PBMC) were isolated from heparinized blood by centrifugation using Histopaque as per manufacturer's instructions. The isolated PBMC were suspended in RPMI supplemented with 10% BCS and were used in experiments immediately thereafter. As determined by flow cytometry, PBMC were typically 11±2% monocytes and 80±13% lymphocytes, with the remaining cytometric events consistent in size with platelets and cell aggregates. […]

[2] = test system: Jurkat cells; assay: trypan blue exclusion, Jurkat; conditions: 25 μg/ml taurolidine
Method: (§1) FIGS. 9A and 9B depict cell viability and growth rates for Jurkat cell line following taurolidine treatment, in terms of % trypan blue negative cells and % cell number, respectively. Cells were treated with various concentrations of taurolidine for 4 hours in AIM-V+0.01% BCS. After aliquots were collected for LDH assay, the remainder of the culture was rinsed in HBSS and resuspended in RPMI+10% BCS without taurolidine. Counts of trypan blue-negative cells (FIG. 9A), and total cell number (FIG. 9B), were recorded daily thereafter (with the measurement at Day 1 being made immediately after the 4 hour taurolidine treatment). Conditions were: no treatment (open circles); 25 μg/ml taurolidine (closed circles); 50 μg/ml taurolidine (open squares); 100 μg/ml taurolidine (closed squares); and vehicle alone (closed triangles). Doubling times were determined under each condition, and expressed as a percentage of the rate of doubling of untreated cells. These values are located to the right of the growth curves in (FIG. 9B). […]
(§2) HL-60 cells treated with 50 μl taurolidine. In these samples, LDH present in the culture medium was 8.3±2.3% of that released by completely lysed cells, compared with 2.3±0.8% measured in control cultures. […] After 4 hour treatment, cells were rinsed and returned to growth medium and monitored for viability and growth over the following 3 days. […]

[3] = test system: ECV304 (endothelial cells); assay: trypan blue exclusion, ECV304; conditions: ECV304, after taurolidine treatment
Method: as §1, with “10A” for “9A”, “10B” for “9B”, “ECV304” for “Jurkat”, “10A),” for “9A),”, “10B),” for “9B),”, “10B).” for “9B).”
as §2

[4] = test system: REH; assay: TUNEL / propidium iodide flow cytometry, REH
Method: In the second method, DNA fragmentation was detected via TUNEL assay according to the manufacturer's instructions. With this methodology, 2×10^6 cells were fixed with 2% paraformaldehyde, permeabilized with 0.1% Triton X-100/0.1% citrate, incubated at 37° C. with terminal deoxynucleotidyl transferase and FITC-dUTP, rinsed and analyzed by flow cytometry. Enhanced FITC signal indicates apoptosis-specific DNA fragmentation. Gavriali, et al, "Identification of programmed cell death in situ via specific labeling of nuclear DNA fragmentation," J Cell Biol 119:493 (1992). Parallel aliquots of unfixed cells were treated with PI and FITC-conjugated anti-CD14 and analyzed by flow cytometry, in order to identify cells with permeable cell membranes (since PI binds to DNA but is excluded from cells with intact plasma membranes) and also to determine the cell-specificity of the apoptotic signal.
In another study, TUNEL assays were performed on all cell lines 6 hours after cells were initially exposed to taurolidine (cells were treated for 4 hours, rinsed, and then incubated for 2 more hours before TUNEL assay was performed).
. Taurolidine and anisomycin induced apoptosis in MM6, HL-60, and Jurkat cells (Table VIII). MM6 and HL-60 cells were similarly effected, with >80% TUNEL-positive cells after 6 hours. Jurkat cells were less sensitive, with approximately 50% of cells induced to undergo apoptosis after taurolidine treatment. After 6 hours, 73% of anisomycin-treated REH cells were apoptotic, with less than 20% of taurolidine-treated REH cells being TUNEL-positive. However, assay of cells 24 hours after
^a Analysis by flow cytometry after staining cells with propidium
iodide and processing for TUNEL.
Data are percent of total cell-size events, and are expressed as mean ±
Cells were treated for 4 hours with taurolidine (100 μg/ml) or
anisomycin (1 μg/ml), and then assayed at 6 hours.
Data are percent of total cell-sized events, and are expressed as mean ±
anisomycin (1 μg/ml), and then assayed at 24 hours.

O=S1(=O)CCN(CN2CCS(=O)(=O)NC2)CN1 [taurolidine, 4,4'-methylenebis(perhydro-1,2,4-thiadiazin 1,1-dioxide)]
inhibition of LPS-induced TNFα secretion [1]: maximally inhibit TNFα secretion | trypan blue staining after treatment [2]: did not show an increase in trypan blue staining | trypan blue staining during 4 day growth [3]: did not demonstrate a significant increase in trypan blue staining | trypan blue staining during 4 day growth ([3]; listed as Taurolidine): cells remained trypan blue negative | rate of apoptosis induction versus anisomycin [4]: less rapidly than with anisomycin treatment | % TUNEL-positive ([4]; taurolidine 100 μg/ml or anisomycin 1 μg/ml for 4 h, assayed at 24 hours, mean ± SD): 81.4 ± 4.4%
